Where a name gives a salt, the structure may show the parent alone. Read-outs that look alike come from different tables or passages of the source.
What was measured:
[1] = biological target: T1, human recombinant dopamine D4.2 receptor (Homo sapiens, UniProt P21917, DEL265-296); experiment: [3H]spiperone receptor binding assay, D4.2 (CHO K1 membranes); details: [3H]spiperone 0.2 nM, human D4.2, CHO K1 membranes, 60 minutes at 25° C.
T1 construct: expressed in transfected cells
T1 sequence (P21917 with tags, fused parts or gaps DEL265-296): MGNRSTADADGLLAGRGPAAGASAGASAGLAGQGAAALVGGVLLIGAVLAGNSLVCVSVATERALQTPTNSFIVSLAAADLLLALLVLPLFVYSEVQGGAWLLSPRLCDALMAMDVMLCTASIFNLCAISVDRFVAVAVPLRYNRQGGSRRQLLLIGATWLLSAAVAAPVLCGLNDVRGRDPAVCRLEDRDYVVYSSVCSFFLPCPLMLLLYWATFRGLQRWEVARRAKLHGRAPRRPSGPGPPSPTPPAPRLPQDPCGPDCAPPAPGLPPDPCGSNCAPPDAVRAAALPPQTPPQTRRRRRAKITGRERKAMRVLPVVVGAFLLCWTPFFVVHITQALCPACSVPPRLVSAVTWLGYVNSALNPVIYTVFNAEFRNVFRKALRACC
From the text: (§1) A cell line expressing human dopamine D2 (Long form) receptors was purchased from Oregon Health Sciences University, Portland, Ore. The D2 receptor cDNA was subcloned into an expression vector, pRc/CMV. The plasmids were transfected by electroporation into CHO K1 cells. A single stable transfectant, resistant to the antibiotic G418, was isolated and selected for use in the binding studies. For D4 binding, CHO K1 cells stably transfected to express the human recombinant dopamine D4.2 receptor subtype, as described by Shih, et al., "The expression and functional characterization of human dopamine D4.2 receptor in CHO K1 cells," Soc.
(§2) Cells were grown until confluent, after which growth medium was removed and replaced with 0.02% ethylene diamine tetracetate (EDTA) in a phosphate-buffered saline solution (Sigma Chemical Co; St. Louis, Mo.) and scraped from the flasks. The cells were centrifuged at about 1000×g for 10 minutes at 40° C. and then resuspended in TEM buffer (25 mM Tris-HCL, pH 7.4, 5 mM EDTA, and 6 mM MgCl2) for D2 or the D4.2 buffer (50 mM Tris-HCl, pH 7.4, 5 mM EDTA, 1.5 mM CaCl2, 5 mM KCl, and 120 mM NaCl) and homogenized. The membranes were pelleted by centrifugation at 20,000×g at 40° C. for 20 minutes. Then the pellets were resuspended in an appropriate buffer at 1 mL/flask and stored at -70° C. until used in the receptor binding assay.
After 60 minutes incubation at 25° C., the incubations were terminated by rapid filtration through Whatmann GF/B glass fibre filters (soaked for 1 hour in 0.5% polyethylenimine) on a -cell harvester, with three washes of 1 mL ice-cold buffer. […] Nonspecific binding was defined in presence of 1 mM of haloperidol.
(§3) Saturation and competition binding data were analyzed using an iterative nonlinear least-square curve-fitting Ligand program. […] Experimental compounds were made up as stock solutions in dimethyl sulfoxide (DMSO). […] Each observation was carried out in triplicate. To allow these calculations, Kd values were measured for the interaction of various ligands with the receptor. […]

[2] = biological target: human dopamine D2 (Long form) receptor (Homo sapiens, UniProt P14416); experiment: [3H]spiperone receptor binding assay, D2 (Long form) (CHO K1 membranes)
From the text: as §1, with “Soc. Neurosci., 1995;21(Part 1):621.” for “Soc.”
as §2, with “CHO K1 cells expressing either human D2 and D4.2 receptors were grown in 162 cm^2 culture flasks in F12 medium (Gibco Laboratories, Grand Island, N.Y.) supplemented with 10% fetal bovine serum (FBS, Hyclone, Logan, UT) in an atmosphere of 5% Co2 /95% air at 37° C. Cells” for “Cells”
After 60 minutes incubation at 25° C., the incubations were terminated by rapid filtration through Whatmann GF/B glass fibre filters (soaked for 1 hour in 0.5% polyethylenimine) on a -cell harvester, with three washes of 1 mL ice-cold buffer. Individual filter disks containing the bound ligand were placed in counting vials with 4 mL of scintillation fluid (Ready Gel, Beckman Instrument Inc, Fullerton, Calif.) and then counted in a Beckman LS-6800 liquid scintillation counter at an efficiency of 45%. Nonspecific binding was defined in presence of 1 mM of haloperidol.
as §3

[3] = [3H]spiperone 0.2 nM, human D2 (Long form), CHO K1 membranes, 60 minutes at 25° C., read-out: D2 Ki

Sequence of human dopamine D2 (Long form) receptor (P14416 whole entry): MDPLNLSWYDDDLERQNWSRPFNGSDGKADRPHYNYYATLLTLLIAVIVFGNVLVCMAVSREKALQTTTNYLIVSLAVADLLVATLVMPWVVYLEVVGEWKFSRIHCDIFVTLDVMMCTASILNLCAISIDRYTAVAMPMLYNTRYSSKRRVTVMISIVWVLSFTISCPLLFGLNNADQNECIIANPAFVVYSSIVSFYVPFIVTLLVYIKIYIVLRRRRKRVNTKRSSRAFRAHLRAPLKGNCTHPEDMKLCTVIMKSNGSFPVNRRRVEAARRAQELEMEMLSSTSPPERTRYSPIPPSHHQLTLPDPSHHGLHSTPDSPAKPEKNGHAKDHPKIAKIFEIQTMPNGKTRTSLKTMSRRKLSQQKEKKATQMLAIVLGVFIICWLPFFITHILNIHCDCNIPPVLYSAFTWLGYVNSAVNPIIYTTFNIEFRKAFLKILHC

| Ki ([1]; read-out: D4 Ki) | Ki [2, 3] | Compound | Ki ([1]; D4 Ki) | Ki [2] |
| --- | --- | --- | --- | --- |
| 39.5 nM | – | O=c1ccc2ccc(CN3CCN(c4ccc(CO)c(Br)c4)CC3)cc2o1 [Example 19, 7-[4-(3-Bromo-4-hydroxymethyl-phenyl)-piperazin-1-ylmethyl]-chromen-2-one] | – | – |
| 49.7 nM | – | O=c1ccc2ccc(CN3CCN(c4ccc5ccccc5c4)CC3)cc2o1 [Example 23, 7-(4-Naphthalen-2-yl-piperazin-1-ylmethyl)-chromen-2-one] | – | – |
| 91 nM | – | CCCSc1cccc(N2CCN(Cc3ccc4ccc(=O)oc4c3)CC2)c1 [Example 27, 7-[4-(3-Propylsulfanyl-phenyl)-piperazin-1-ylmethyl]-chromen-2-one] | – | – |
| 93 nM | – | O=c1ccc2ccc(CN3CCN(c4ccc(Cl)cc4)CC3)cc2o1 [Example 28, 7-[4-(4-Chloro-phenyl)-piperazin-1-ylmethyl]-chromen-2-one] | – | – |
| 128 nM | – | Cc1c(Cl)cccc1N1CCN(Cc2ccc3ccc(=O)oc3c2)CC1 [Example 29, 7-[4-(3-Chloro-2-methyl-phenyl)-piperazin-1-ylmethyl]-chromen-2-one] | – | – |
| > 2000 nM | – | COc1cc(N2CCN(Cc3ccc4ccc(=O)oc4c3)CC2)cc(OC)c1OC [Example 31, 7-[4-(3,4,5-Trimethoxy-phenyl)-piperazin-1-ylmethyl]-chromen-2-one] | – | – |
| 5000 nM | – | O=c1ccc2ccc(CN3CCN(c4ncccn4)CC3)cc2o1 [Example 32, 2H-1-Benzopyran-2-one, 7-[[4-(2-pyrimidinyl)-1-piperazinyl]methyl]-, dihydrochloride] | – | – |
| 41 nM | – | O=c1ccc2cc(CN3CCN(c4cccc(Cl)c4Cl)CC3)ccc2o1 [Example 45] | – | – |
| 41 nM | – | O=c1ccc2cc(CN3CCN(c4ccc(F)cc4)CC3)ccc2o1 [Example 46, 6-[4-(4-Fluoro-phenyl)-piperazin-1-ylmethyl]-chromen-2-one] | – | – |
| 163 nM | – | O=c1ccc2cc(CN3CCN(c4ncccn4)CC3)ccc2o1 [Example 50, 2H-1-Benzopyran-2-one, 6-[[4-(2-pyrimidinyl)-1-piperazinyl]methyl]-] | – | – |
| 316 nM | – | COc1cc(N2CCN(Cc3ccc4oc(=O)ccc4c3)CC2)cc(OC)c1OC [Example 51, 6-[4-(3,4,5-Trimethoxy-phenyl)-piperazin-1-ylmethyl]-chromen-2-one] | – | – |

Second part, the molecule before the results:

| Compound | Ki ([1]; read-out: D4 Ki) | Ki [2, 3] | Ki ([1]; D4 Ki) | Ki [2] |
| --- | --- | --- | --- | --- |
| Cc1ccc(N2CCN(Cc3ccc4ccc(=O)oc4c3)CC2)cc1Cl [Example 1, 7-[4-(3-Chloro-4-methyl-phenyl)-piperazin-1-ylmethyl]-chromen-2-one] | – | – | 6.9 nM | > 5.88 µM |
| O=c1ccc2ccc(CN3CCN(c4ccc(CO)c(Cl)c4)CC3)cc2o1 [Example 2, 7-[4-(3-Chloro-4-hydroxymethyl-phenyl)-piperazin-1-ylmethyl]-chromen-2-one] | 11 nM | 10.6 µM | – | – |
| Cc1ccc(N2CCN(Cc3ccc4ccc(=O)oc4c3)CC2)cc1C [Example 3, 7-[4-(3,4-Dimethyl-phenyl)-piperazin-1-ylmethyl]-chromen-2-one] | – | 0.433 µM | 13.9 nM | – |
| Cc1ccccc1N1CCN(Cc2ccc3ccc(=O)oc3c2)CC1 [Example 4, 7-(4-o-Tolyl-piperazin-1-ylmethyl)-chromen-2-one] | – | 1.94 µM | 16.3 nM | – |
| O=c1ccc2ccc(CN3CCN(c4ccccc4Cl)CC3)cc2o1 [Example 5, 7-[4-(2-Chloro-phenyl)-piperazin-1-ylmethyl]-chromen-2-one] | 16.8 nM | 0.635 µM | – | – |
| O=c1ccc2ccc(CN3CCC(c4ccccc4)CC3)cc2o1 [Example 7, 7-(4-Phenyl-piperidin-1-ylmethyl)-chromen-2-one] | – | – | 18 nM | – |
| Cc1cccc(N2CCN(Cc3ccc4ccc(=O)oc4c3)CC2)c1C [Example 8, 7-[4-(2,3-Dimethyl-phenyl)-piperazin-1-ylmethyl]-chromen-2-one] | 19 nM | 0.688 µM | – | – |
| O=c1ccc2ccc(CN3CCN(c4cccc(Cl)c4)CC3)cc2o1 [Example 9, 7-[4-(3-Chloro-phenyl)-piperazin-1-ylmethyl]-chromen-2-one] | 23 nM | > 10 µM | – | – |
| O=c1ccc2ccc(CN3CCN(c4cccc(C(F)(F)F)c4)CC3)cc2o1 [Example 10, 7-[4-(3-Trifluoromethyl-phenyl)-piperazin-1-ylmethyl]-chromen-2-one] | 24 nM | 5.88 µM | – | – |
| O=Cc1ccc(N2CCN(Cc3ccc4ccc(=O)oc4c3)CC2)cc1Cl [Example 11, 2-Chloro-4-[4-(2-oxo-2H-chromen-7-ylmethyl)-piperazin-1-yl]-benzaldehyde] | 24.6 nM | > 5.88 µM | – | – |
| Cc1ccc(C2CCN(Cc3ccc4ccc(=O)oc4c3)CC2)cc1 [Example 12, 7-(4-p-Tolyl-piperidin-1-ylmethyl)-chromen-2-one] | 25.7 nM | – | – | – |
| O=c1ccc2ccc(CN3CCN(c4ccccc4)CC3)cc2o1 [Example 13, 7-(4-Phenyl-piperazin-1-ylmethyl)-chromen-2-one] | – | 5.34 µM | 26 nM | – |
| O=c1ccc2ccc(CN3CCN(c4cccc([N+](=O)[O-])c4)CC3)cc2o1 [Example 14, 7-[4-(3-Nitro-phenyl)-piperazin-1-ylmethyl]-chromen-2-one] | 26 nM | 5.88 µM | – | – |
| O=c1ccc2ccc(CN3CCN(c4ccc(F)c(C(F)(F)F)c4)CC3)cc2o1 [Example 15, 7-[4-(4-Fluoro-3-trifluoromethyl-phenyl)-piperazin-1-ylmethyl]-chromen-2-one] | 27.3 nM | 7.12 µM | – | – |
| O=c1ccc2ccc(CN3CCN(c4ccc(CO)c(F)c4)CC3)cc2o1 [Example 16, 7-[4-(3-Fluoro-4-hydroxymethyl-phenyl)-piperazin-1-ylmethyl]-chromen-2-one] | 29.9 nM | – | – | – |
| O=c1ccc2ccc(CN3CCN(c4ccc(F)cc4)CC3)cc2o1 [Example 24, 7-[4-(4-Fluoro-phenyl)-piperazin-1-ylmethyl]-chromen-2-one] | – | – | 59 nM | – |
| COc1ccc(N2CCN(Cc3ccc4ccc(=O)oc4c3)CC2)cc1 [Example 26, 7-[4-(4-Methoxy-phenyl)-piperazin-1-ylmethyl]-chromen-2-one] | – | – | 75 nM | – |
| O=c1ccc2ccc(CN3CCN(Cc4ccccc4)CC3)cc2o1 [Example 30, 7-(4-Benzyl-piperazin-1-ylmethyl)-chromen-2-one] | – | – | 2660 nM | – |
| Cc1cccc(N2CCN(Cc3ccc4oc(=O)ccc4c3)CC2)c1 [Example 49, 6-(4-m-Tolyl-piperazin-1-ylmethyl)-chromen-2-one] | – | – | 74 nM | – |

Reference: patent publication US5922719A, “Coumarin dopamine D4 receptor antagonists” (priority 1997, dated 1999)
